Results as given in patent US10683288B2, “Epothilone B and dictyostatin analogs, their preparation and use” (The Trustees of Columbia University in the City of New York, priority 2015, dated 2020).
Read-outs that look alike come from different tables or passages of the source. Values belong to the molecule of their own block, whether it stands above or below them.

Legend:
PC3 (prostate) [1] = test: cell growth inhibition, dictyostatin analogs, PC3; format: cell-based; settings: for GI50: read-out: GI50 PC3
Experimental: (§1) The C(6)- and C(12)-(4-azidobutyl) analogs 1 and 2 as well as triazole 26 and amide 27 were assayed for cell growth inhibition against four cell lines (PC3 (prostate), 1A9 (ovarian), A549 (lung), and DLD1 (colon)) alongside reference samples of synthetic dictyostatin and paclitaxel (Table 1a).

1A9 (ovarian) = test: cell growth inhibition, dictyostatin analogs, 1A9; format: cell-based; settings: for GI50: read-out: GI50 1A9
Experimental: as §1

A549 (lung) = test: cell growth inhibition, dictyostatin analogs, A549; format: cell-based; settings: for GI50: Homo sapiens
Experimental: as §1

DLD1 (colon) = test: cell growth inhibition, dictyostatin analogs, DLD1; format: cell-based; settings: for GI50: Homo sapiens
Experimental: as §1

[2] = system: PC3 (prostate), 1A9 (ovarian), A549 (lung), and DLD1 (colon) cell lines; test: cell growth inhibition, dictyostatin analogs, summary over four cell lines; format: cell-based
Experimental: as §1

[3] = literature; cited from earlier work
PC3 (prostate) [4] = test: cell growth inhibition, Epo B analogs, PC3; format: cell-based; settings: read-out: IC50 PC3 (Prostate)
Experimental: (§2) Compounds 19, 20 and 21 were assayed for cell growth inhibition against four cell lines (PC3 (prostate), MCF7 breast), H522 (lung), and OVCAR8 (ovarian)) alongside reference samples of Epo A, ixabepilone and taxol (Table 1).

MCF7 (breast) = test: cell growth inhibition, Epo B analogs, MCF7; format: cell-based
Experimental: as §2

H522 (lung) = test: cell growth inhibition, Epo B analogs, H522; format: cell-based
Experimental: as §2

OVCAR8 (ovarian) = test: cell growth inhibition, Epo B analogs, OVCAR8; format: cell-based
Experimental: as §2

[5] = Homo sapiens, MCF7, read-out: IC50 MCF7 (Breast)
[6] = Homo sapiens, NCI-H522, read-out: IC50 H522 (Lung)
[7] = Homo sapiens, OVCAR-8, read-out: IC50 OVCAR8 (Ovarian)
[8] = Homo sapiens, MCF7 (Breast) cell line, read-out: IC50 MCF7 (Breast)
[9] = Homo sapiens, NCI-H522, H522 (Lung) cell line, read-out: IC50 H522 (Lung)
[10] = Homo sapiens, OVCAR-8, OVCAR8 (Ovarian) cell line, read-out: IC50 OVCAR8 (Ovarian)

Molecule: C=C/C=C\[C@H](C)[C@@H]1OC(=O)/C=C\C=C\[C@@H](CCCCN=[N+]=[N-])[C@@H](O)C[C@H](O)/C=C\[C@H](C)[C@H](O)[C@@H](C)C[C@@H](C)CC[C@@H](O)[C@@H]1C [C(6) analog 1]
GI50 (PC3 (prostate) [1]; Prostate cell): 1.9 nM | GI50 (1A9 (ovarian)): 2.2 nM | GI50 (A549 (lung); A549, read-out: GI50 A549): 1.1 nM | GI50 (DLD1 (colon); DLD-1, read-out: GI50 DLD1): 1.1 nM | GI50 values relative to dictyostatin ([2]; four cell lines): only slightly attenuated relative to dictyostatin

Molecule: C(6)-epi dictyostatin
potency relative to the natural product dictyostatin, in words [3]: as potent as the natural product

Molecule: CC(=O)NCCCC[C@H]1C(=O)C(C)(C)[C@@H](O)CC(=O)O[C@H](/C(C)=C/c2csc(C)n2)C[C@@H]2OC2(C)CCC[C@H](C)[C@@H]1O (stereo partly drawn) [Compound 21]
IC50 (PC3 (prostate) [4]; Prostate cell): 1 nM | IC50 (MCF7 (breast); [5]): ≤ 0.65 nM | IC50 (H522 (lung); [6]): 0.6 nM | IC50 (OVCAR8 (ovarian); [7]): 2.2 nM

IC50 (PC3 (prostate) [4]; PC3 (Prostate) cell line): 6 nM | IC50 (MCF7 (breast); [8]): < 0.13 nM | IC50 (H522 (lung); [9]): 2.6 nM | IC50 (OVCAR8 (ovarian); [10]): 1.9 nM | GI50 (PC3 (prostate) [1]; PC3 (Prostate) cell line): 1.9 nM | GI50 (A549 (lung); A549 (lung) cell line, read-out: GI50 A549): 1.2 nM | GI50 (DLD1 (colon); DLD-1, DLD1 (colon) cell line, read-out: GI50 DLD1): 15 nM
Molecule: CC(=O)O[C@H]1C(=O)[C@@]2(C)[C@H]([C@H](OC(=O)c3ccccc3)[C@]3(O)C[C@H](OC(=O)[C@H](O)[C@@H](NC(=O)c4ccccc4)c4ccccc4)C(C)=C1C3(C)C)[C@]1(OC(C)=O)CO[C@@H]1C[C@@H]2O [Taxol, paclitaxel, reference compound]
GI50 (1A9 (ovarian); 1A9 (ovarian) cell line): 0.4 nM

Molecule: C/C(=C\c1csc(C)n1)[C@@H]1C[C@@H]2OC2(C)CCC[C@H](C)[C@H](O)[C@@H](CCCCN=[N+]=[N-])C(=O)C(C)(C)[C@@H](O)CC(=O)O1 (stereo partly drawn) [Compound 19]
IC50 (PC3 (prostate) [4]; Prostate cell): 2.1 nM | IC50 (MCF7 (breast); [5]): < 0.65 nM | IC50 (H522 (lung); [6]): 0.4 nM | IC50 (OVCAR8 (ovarian); [7]): 1 nM

Molecule: C=C/C=C\[C@H](C)[C@@H]1OC(=O)/C=C\C=C\[C@@H](CCCCn2nnc3c2CC[C@@H]2[C@@H](CO)[C@@H]2CC3)[C@@H](O)C[C@H](O)/C=C\[C@H](C)[C@H](O)[C@@H](C)C[C@@H](C)CC[C@@H](O)[C@@H]1C [triazole 26]
activity relative to azide 1 (PC3 (prostate) [1]; PC3 cell line): only slightly diminished from that of azide 1 | GI50 (PC3 (prostate) [1]; Prostate cell): 4.8 nM | activity relative to azide 1 (1A9 (ovarian); 1A9 cell line): only slightly diminished from that of azide 1 | GI50 (1A9 (ovarian)): 8.4 nM | activity relative to azide 1 (A549 (lung); A549 cell line): more substantial (though not catastrophic) reductions in potency | GI50 (A549 (lung); A549, read-out: GI50 A549): 25 nM | activity relative to azide 1 (DLD1 (colon); DLD1 cell line): more substantial (though not catastrophic) reductions in potency | GI50 (DLD1 (colon); DLD-1, read-out: GI50 DLD1): 13 nM

Molecule: C(6)-normethyl dictyostatin
loss of potency relative to the natural product dictyostatin [3]: ≤ 1 order of magnitude

Molecule: C=C/C=C\[C@H](C)[C@@H]1OC(=O)/C=C\C=C\[C@@H](C)[C@@H](O)C[C@H](O)/C=C\[C@H](C)[C@H](O)[C@@H](C)C[C@@H](C)CC[C@@H](O)[C@@H]1C [dictyostatin]
GI50 (PC3 (prostate) [1]; Prostate cell): 1.3 nM | GI50 (1A9 (ovarian)): 0.8 nM | GI50 (A549 (lung); A549, read-out: GI50 A549): 0.3 nM | GI50 (DLD1 (colon); DLD-1, read-out: GI50 DLD1): 0.4 nM

Molecule: C=C/C=C\[C@H](C)[C@@H]1OC(=O)/C=C\C=C\[C@@H](CCCCNC(C)=O)[C@@H](O)C[C@H](O)/C=C\[C@H](C)[C@H](O)[C@@H](C)C[C@@H](C)CC[C@@H](O)[C@@H]1C [amide 27]
GI50 (PC3 (prostate) [1]; Prostate cell): 50 nM | GI50 (1A9 (ovarian)): 30 nM | GI50 (A549 (lung); A549, read-out: GI50 A549): 22 nM | GI50 (DLD1 (colon); DLD-1, read-out: GI50 DLD1): 32 nM | reduction in potency relative to azide 1 ([2]; against all four cell lines): 1-2 orders of magnitude

IC50 (PC3 (prostate) [4]; PC3 (Prostate) cell line): 4 nM | IC50 (MCF7 (breast); [8]): 2 nM | IC50 (H522 (lung); [9]): 2.5 nM | IC50 (OVCAR8 (ovarian); [10]): 3.3 nM
Molecule: C/C(=C\c1csc(C)n1)[C@@H]1C[C@@H]2O[C@]2(C)CCC[C@H](C)[C@H](O)[C@@H](C)C(=O)C(C)(C)[C@@H](O)CC(=O)N1 [Ixabepilone]

Molecule: C/C(=C\c1csc(C)n1)[C@@H]1C[C@@H]2O[C@@H]2CCC[C@H](C)[C@H](O)[C@@H](C)C(=O)C(C)(C)[C@@H](O)CC(=O)O1 [Epo A, epothilone A]
IC50 (PC3 (prostate) [4]; PC3 (Prostate) cell line): 7 nM | IC50 (MCF7 (breast); MCF7 (Breast) cell line, read-out: IC50 MCF7 (Breast)): 7 nM | IC50 (H522 (lung); H522 (Lung) cell line, read-out: IC50 H522 (Lung)): 5.5 nM | IC50 (OVCAR8 (ovarian); OVCAR8 (Ovarian) cell line, read-out: IC50 OVCAR8 (Ovarian)): 6 nM
